Data taken from patent publication EP0186452A2, “Organosilicon compounds process for their production and pharmaceutical compositions thereof” (SANWA KAGAKU KENKYUSHO CO., LTD., priority 1984, dated 1986).

Tests used:
[1] = Acute toxicity, oral dosage to mice, LD50; conditions: mouse, in vivo, single dose suspended in 0.1% P-1570, ICR female mice, observed 21 days
Source text: Each test compound suspended in 0.1% P-1570 was orally and forcedly dosed through a gastric probe to ICR female mice (21 - 22g, age of about 5 weeks). An identification number was given to each mouse, and weighing and observation on general behaviour were done just before the dosage and each day after the same. Each dead mouse was subjected without delay to an autopsy to check the same, more particularly in detail on enterona. All living mice were killed at the 21st day from the dosage to carry out an autopsy for checking the same, more particularly on the entrails.
An LD50 was calculated in accordance with Leed.and Munch's method.

B-16 melanoma = assay: Anti-tumor action to B-16 melanoma transplanted under skin of mice; format: in vivo, BDF1 female mice; conditions: Mus musculus, B16, 504 h, 5th and 9th day, tumor weight at 21st day, read-out: Inhibition Ratio (%); for inhibition in vivo at 250 mg/kg: 250 mg/kg/day x 3, oral at 1st; for inhibition in vivo at 500 mg/kg: 500 mg/kg/day x 3, oral at 1st; for inhibition in vivo at 125 mg/kg: 125 mg/kg/day x 3, oral at 1st
Source text: A cancer cell of B-16 melanoma (1 x 10^5 cells) was transplanted under skin of BDF1 female mice (age of about 5 weeks), and each of testing compounds was orally dosed at lst, 5th and 9th day after the transplantation. At 21st day after the transplantation, the mice were killed to measure a weight of the formed cancerous tumor and to finally determine an inhibition ratio due to the dosage of the test compound.

colon-38 carcinoma = assay: Anti-tumor action to colon-38 carcinoma transplanted under skin of mice; format: in vivo, BDF1 female mice; conditions: 5th and 9th day, tumor weight at 28th day vs non-treated control; for inhibition in vivo at 338 mg/kg: 338 mg/kg/day x 3, oral at 1st; for inhibition in vivo at 323 mg/kg: 323 mg/kg/day x 3, oral at 1st
Description: 0.02 ml of 10(W/V) cell suspension prepared from a solid cancer cell (colon-38 carcinoma) was transplanted under skin of BDF1 female mice (20 - 21g, age of about 5 weeks), and each test compound was orally dosed at lst, 5th and 9th day after the transplantation. major and minor axes of the forming cancerous tumor were measured at llth, 14th, 18th, 21st, 25th and 28th day after the transplantation to calcuate the volume ofthe cancerous tumor in accordance with the equation: [formula] • wherein L: major axis (mm) • W: minor axis (mm)
At 28th day from the transplantation, the mice were killed and each of the cancerous tumors was enucleated to measure its weight and to determine an inhibition ratio in comparison with that in a non-treated control group.

[2] = Mus musculus, 672 h, read-out: Inhibition Ratio (%)

Row | Compound | LD50 at 504 h [1] [mg/kg] | inhibition in vivo at 250 mg/kg (B-16 melanoma) [%] | inhibition in vivo at 500 mg/kg (B-16 melanoma) [%] | further results
1 | CCCCCCCC[Si](C)(C)CCSCCN [Example 1, 2-[[2-(Dimethyl-n-octylsilyl)ethyl]thio]ethylamine] | > 1500 |  |  | 
2 | CC(C)[Si](C)(C)CCSCCN [Example 2, Z-([2-(Isopropyldimethylsilyl)ethyl]thio]ethylamine] | 1620 | 23.8 | 36.1 | 
3 | CCCC[Si](C)(C)CCSCCN [Example 3, 2-[[2-(n-Butyldimethylsilyl)ethyl]thio]ethylamine] | > 1500 |  |  | 
4 | C[Si](CCSCCN)(c1ccccc1)c1ccccc1 [Example 4, 2-[[2-(Methyldiphenylsilyl)ethyl]thio)ethylamine] | > 1500 |  |  | 
5 | CC(C)[Si](C)(C)CCSCCCN [Example 5, 3-[[2-(Isopropyldimethylsilyl)ethyl]thio]propylamine] | 750 | 21.4 | 50.6 | 
6 | CC(C)[Si](C)(C)CCCSCCN [Example 6, Z-[[3-(Isopropyldimethylsilyl)propyl]thio]ethylamine] | 1500 |  |  | 
7 | CC(C)(C)[Si](C)(C)CCCSCCN [Example 7, 2[[3-(t-Butyldimethylsilyl)propyl]thio]ethylamine] | > 1500 | 50 | 32.7 | 
8 | CC(C)[Si](C)(C)CCCSCCCN [Example 8, 3-[[3-(Isopropyldimethylsilyl)propyl]thio]propylamine] | > 1500 | 61.1 | 46.3 | 
9 | CC(C)(C)[Si](C)(C)CCCSCCCN [Example 9, 3-[[3-(t-Butyldimethylsilyl)propyl]thio)propylamine] | > 1500 | 57.3 | 51.9 | 
10 | CCCC[Si](C)(C)CCCSCCCN [Example 10, 3-[[3-(n-Butyldimethylsilyl)propyl)thio)propylamine] | > 1500 | 50.4 | 29.8 | 
11 | C[Si](C)(CCCSCCCN)c1ccccc1 [Example 11, 3[[3-(Dimethylphenylsilyl)propyl]thio]propylamine] | > 1500 | 38.7 | 45.4 | 
12 | CCCCCCCC[Si](C)(C)CCSCCNC(=O)n1cc(F)c(=O)[nH]c1=O [Reference Example 1, 1-[2-[[2-dimethyl-n-octylsilylethyl)thio]ethylcarbamoyl]-5-fluorouracil] | 1580 |  |  | inhibition in vivo at 345 mg/kg (colon-38 carcinoma; Mus musculus, 672 h, 345 mg/kg/day x 3, oral at 1st, read-out: Inhibition Ratio (%)): 80%
13 | CC(C)[Si](C)(C)CCSCCNC(=O)n1cc(F)c(=O)[nH]c1=O [Reference Example 2, 1-[2-[[2-(Dimethylisopropylsilyl)ethyl]thio]-ethylcarbamoyl]-5-fluorouracil] | 1380 |  |  | inhibition in vivo at 300 mg/kg (B-16 melanoma; 300 mg/kg/day x 3, oral at 1st): 79.7%; inhibition in vivo at 289 mg/kg (colon-38 carcinoma; Mus musculus, 672 h, 289 mg/kg/day x 3, oral at 1st, read-out: Inhibition Ratio (%)): 89.8%
14 | CCCC[Si](C)(C)CCSCCNC(=O)n1cc(F)c(=O)[nH]c1=O [compound 3, 1-[2-[[2-(Dimethyl-n-butylsilyl)ethyl]thio]-ethylcarbamoyl]-5-fluorouracil] | 1380 |  |  | inhibition in vivo at 300 mg/kg (colon-38 carcinoma; Mus musculus, 672 h, 300 mg/kg/day x 3, oral at 1st, read-out: Inhibition Ratio (%)): 81.2%
15 | C[Si](CCSCCNC(=O)n1cc(F)c(=O)[nH]c1=O)(c1ccccc1)c1ccccc1 [compound 4, 1-[2-[[2-(Diphenylmethylsilyl)ethyl]thio]-ethylcarbamoyl]-5-fluorouracil] | 1400 |  |  | Inhibition Ratio (%) (colon-38 carcinoma; 366 mg/kg/day x 3, oral at 1st): 32.2%
16 | CC(C)[Si](C)(C)CCSCCCNC(=O)n1cc(F)c(=O)[nH]c1=O [compound 5, 1-[3-[[2-(Dimethylisopropylsilyl)ethyl]thio]-propylcarbamoyl]-5-fluorouracil] | 2250 | 19.4 |  | inhibition in vivo at 125 mg/kg (B-16 melanoma): 17.6%; inhibition in vivo at 338 mg/kg (colon-38 carcinoma; [2]): 98.4%
17 | CC(C)[Si](C)(C)CCCSCCNC(=O)n1cc(F)c(=O)[nH]c1=O [compound 6, 1-[2-[[3-(Dimethylisopropylsilyl)propyl]thio]-ethylcarbamoyl]-5-fluorouracil] | 1820 |  |  | inhibition in vivo at 338 mg/kg (colon-38 carcinoma; [2]): 95.9%
18 | CC(C)(C)[Si](C)(C)CCCSCCNC(=O)n1cc(F)c(=O)[nH]c1=O [compound 7, 1-{2-{[3-(Dimethyl-t-butylsilyl]propyl)thio}-ethylcarbamoyl}-5-fluorouracil] | 1380 | 43.1 |  | inhibition in vivo at 311 mg/kg (colon-38 carcinoma; Mus musculus, 672 h, 311 mg/kg/day x 3, oral at 1st, read-out: Inhibition Ratio (%)): 81%
19 | CC(C)[Si](C)(C)CCCSCCCNC(=O)n1cc(F)c(=O)[nH]c1=O [compound 8, 1-{3-{[3-(Dimethylisopropylsilyl)propyl]thio}-propylcarbamoyl}-5-fluorouracil] | 2120 | 45.7 |  | inhibition in vivo at 125 mg/kg (B-16 melanoma): 32.8%; inhibition in vivo at 350 mg/kg (colon-38 carcinoma; Mus musculus, 672 h, 350 mg/kg/day x 3, oral at 1st, read-out: Inhibition Ratio (%)): 90.3%
20 | CC(C)(C)[Si](C)(C)CCCSCCCNC(=O)n1cc(F)c(=O)[nH]c1=O [compound 9, 1-{3-{[3-(t-Butyldimethylsilyl)propyl]thio}-propylcarbamoyl}-5-fluorouracil] | 1800 | 46.3 |  | inhibition in vivo at 125 mg/kg (B-16 melanoma): 55.2%; inhibition in vivo at 323 mg/kg (colon-38 carcinoma; [2]): 90.1%
21 | CCCC[Si](C)(C)CCCSCCCNC(=O)n1cc(F)c(=O)[nH]c1=O [compound 10, 1-{3-{[3-(n-Butyldimethylsilyl)propyl]thio}-propylcarbamoyl}-5-fluorouracil] | 1850 | 88.5 |  | inhibition in vivo at 125 mg/kg (B-16 melanoma): 69.5%; inhibition in vivo at 323 mg/kg (colon-38 carcinoma; [2]): 92.3%
22 | C[Si](C)(CCCSCCCNC(=O)n1cc(F)c(=O)[nH]c1=O)c1ccccc1 [compound 11, 1-{3-{[3-(Dimethylphenylsilyl)propyl]thio}-propylcarbamoyl}-5-fluorouracil] | 1800 | 70.5 |  | inhibition in vivo at 125 mg/kg (B-16 melanoma): 82.2%; inhibition in vivo at 339 mg/kg (colon-38 carcinoma; Mus musculus, 672 h, 339 mg/kg/day x 3, oral at 1st, read-out: Inhibition Ratio (%)): 97.9%
